US20150315218A1, “SALTS OF PRODRUGS OF PIPERAZINE AND SUBSTITUTED PIPERIDINE ANTIVIRAL AGENTS” (Bristol-Myers Squibb Company, priority 2004, published 2015)
Counter-ions that a name gives are not always drawn. Like-named read-outs stand apart in the source and are kept apart here. Values belong to the compound of their own block, whether it stands above or below them.

What was measured:
[1] = Single-dose toxicokinetic and tolerability study of prodrugs in dogs; type: in vivo, dog; details: for AUC(0-inf) / concentration at 24 h / Cmax: plasma; for concentration at 24 h: read-out: C24h
Description: A multi-phase study was conducted to evaluate the tolerability of the prodrug, Iab (monolysine salt) at dosages of 24, 90, or 240 mg/kg (free acid, molar equivalent to 19, 71, or 190 mg/kg of parent IVa, respectively) and the toxicokinetics of lab and IVa (4). Iab was administered to two female dogs/group once daily either as an aqueous solution (24 or 90 mg/kg) or dry-filled capsules (24, 90 [once and twice daily] or 240 mg/kg). The endpoints were: clinical signs, body weight, food consumption, and plasma toxicokinetics of lab and IVa. In all cases, a 1-week washout period was used between doses for all phases of the study. […]
On day 1, Icb was administered to one dog/sex/group once daily in dry-filled capsules at the above dosages. A 1-week washout period was used between doses in the study. On day 8, Icb was administered to one dog/sex/group once daily as an aqueous solution at 25 mg/kg or twice daily in dry-filled capsules at 46 or 125 mg/kg BID.

[2] = IV and PO pharmacokinetic studies of prodrug salts (Iab, Ibb, Icb) in the monkey, with historical parent data; type: in vivo, cynomolgus monkeys; details: for AUC: read-out: AUCtot; for concentration at 24 hr: read-out: C-24 hr; for Cmax: read-out: Cmax
Description: The IV and PO studies of Iab were conducted in a crossover fashion in three male cynomolgus monkeys (11±1.2 kg, Charles River Biomedical Research Foundation, Houston, Tex.). There was a two-week washout period between the IV and PO studies.
In the IV study, Iab was infused via the femoral vein at 1.3 mg/kg (free acid, or 1.1 mg/kg of IVa equivalent) over 5 min at a constant rate of 0.1 mL/kg/min. The concentration of the dosing solution was 2.6 mg/mL, and the dosing volume was 0.5 mL/kg. Serial blood samples were collected from the femoral artery before dosing and at 5, 10, 15, 30, 45 min, 1, 2, 4, 6, 8 and 24 hr after dosing.
In the PO study, the monkeys were fasted overnight before dosing. Iab was administered by oral gavage at 7.1 mg/kg (free acid, or 5.6 mg/kg of IVa equivalent). The concentration of the dosing solution was 14.2 mg/mL, and the dosing volume was 0.5 mL/kg. Serial blood samples were collected before dosing and at 15, 30, 45 min, 1, 2, 4, 6, 8 and 24 hr after dosing.
The IV and PO studies of Ibb were conducted in a crossover fashion in three male cynomolgus monkeys (9.9±2.4 kg, Charles River Biomedical Research Foundation, Houston, Tex.). There was a two-week washout period between the IV and PO studies.
The concentration of the dosing solution was 2.7 mg/mL, and the dosing volume was 0.5 mL/kg. Serial blood samples were collected from the femoral artery before dosing and at 5, 10, 15, 30, 45 min, 1, 2, 4, 6, 8 and 24 hr after dosing.
In the PO study, the monkeys were fasted overnight before dosing. […] The concentration of the dosing solution was 5.8 mg/mL, and the dosing volume was 1 mL/kg. Serial blood samples were collected before dosing and at 15, 30, 45 min, 1, 2, 4, 6, 8 and 24 hr after dosing.
The IV and PO studies of Icb were conducted in a crossover fashion in three male cynomolgus monkeys (10±1.6 kg, Charles River Biomedical Research Foundation, Houston, Tex.). There was a two-week washout period between the IV and PO studies.
The concentration of the dosing solution was 2.8 mg/mL, and the dosing volume was 0.5 mL/kg. Serial blood samples were collected from the femoral artery before dosing and at 5, 10, 15, 30, 45 min, 1, 2, 4, 6, 8 and 24 hr after dosing.
In the PO study, the monkeys were fasted overnight before dosing. […] The concentration of the dosing solution was 9.8 mg/mL, and the dosing volume was 0.5 mL/kg. Serial blood samples were collected before dosing and at 15, 30, 45 min, 1, 2, 4, 6, 8 and 24 hr after dosing.

[3] = Single-dose oral toxicokinetic study of prodrugs in rats; type: in vivo, rat; details: for concentration at 24 h / Cmax / AUC: plasma; for concentration at 24 h: oral, read-out: C24 h; for Cmax / AUC: po
Description: A 1-day oral toxicokinetic study in rats was conducted using the prodrug Iab (monolysine salt). Iab was administered at dosages of 16, 72, and 267 mg/kg (free acid) by oral gavage to three male rats/group using water as the vehicle (solution formulation). The dosages of prodrug free acid correspond to IVa (parent) molar equivalent dosages of 13, 57, and 211 mg/kg, respectively. The endpoint evaluated was plasma toxicokinetics of Iab and IVa in the individual rats.
A 1-day oral toxicokinetic study in rats was conducted by using the prodrug Ibb (monolysine salt). Ibb was administered at dosages of 19, 64, and 236 mg/kg (free acid) by oral gavage to three male rats/group using water as the vehicle (solution formulation).
A 1-day oral toxicokinetic study in rats was conducted using the prodrug Icb (disodium salt). Icb was administered at dosages of 5, 25, and 200 mg/kg (free acid) by oral gavage to three male rats/group using water as the vehicle (solution formulation).

[4] = female, dog, 25 mg/kg, dog 2201F, day 8, Icb 25 mg/kg QD aqueous solution
[5] = female, dog, po, 25 mg/kg, dog 2201F, day 1, Icb 25 mg/kg (IVc equiv. 20) QD dry-filled capsules
[6] = female, dog, po, 46 mg/kg, dog 3201F, day 8, Icb 46 mg/kg BID dry-filled capsules
[7] = female, dog, po, 92 mg/kg, dog 3201F, day 1, Icb 92 mg/kg (IVc equiv. 75) QD dry-filled capsules
[8] = female, dog, po, 125 mg/kg, dog 4201F, day 8, Icb 125 mg/kg BID dry-filled capsules, emesis
[9] = female, dog, po, 250 mg/kg, dog 4201F, day 1, Icb 250 mg/kg (IVc equiv. 203) QD dry-filled capsules, emesis
[10] = male, dog, 25 mg/kg, dog 2101M, day 8, Icb 25 mg/kg QD aqueous solution
[11] = male, dog, po, 25 mg/kg, dog 2101M, day 1, Icb 25 mg/kg (IVc equiv. 20) QD dry-filled capsules
[12] = male, dog, po, 46 mg/kg, dog 3101M, day 8, Icb 46 mg/kg BID dry-filled capsules
[13] = male, dog, po, 92 mg/kg, dog 3101M, day 1, Icb 92 mg/kg (IVc equiv. 75) QD dry-filled capsules, emesis
[14] = male, dog, po, 125 mg/kg, dog 4101M, day 8, Icb 125 mg/kg BID dry-filled capsules, emesis
[15] = male, dog, po, 250 mg/kg, dog 4101M, day 1, Icb 250 mg/kg (IVc equiv. 203) QD dry-filled capsules, emesis
[16] = cynomolgus monkey, plasma, po, 5 mg/kg
[17] = male, cynomolgus monkey, plasma, po, 4.9 mg/kg

T1/2 ([2]; male, cynomolgus monkey, in vivo, iv, […]): 5.34 ± 1.86 min
Compound: COc1cnc(-n2cnc(C)n2)c2c1c(C(=O)C(=O)N1CCN(C(=O)c3ccccc3)CC1)cn2COP(=O)(O)O [Icb, [3-[(4-benzoylpiperazin-1-yl)(oxo)acetyl]-4-methoxy-7-(3-methyl-1H-1,2,4-triazol-1-yl)-1H-pyrrolo[2,3-c]pyridin-1-yl]methyl dihydrogen phosphate, 2-amino-2-(hydroxymethyl)propane-1,3-diol salt (1:1)]
Emesis (footnote 4) ([1]; both, dog, in vivo): ^4Emesis observed within 2 hours of dosing with capsule remnant present
Emesis (footnote 5) ([1]; both, dog, in vivo): ^5Emesis observed within 2 hours of dosing with no capsule remnant
levels of prodrug detected in some plasma samples ([1]; both, dog, in vivo): ≤ 0.1 µM
prodrug concentrations in plasma ([3]; male, CD, rat, in vivo, 200 mg/kg): 0.02 to 0.04 µM
prodrug in plasma ([3]; rat, in vivo, 25 mg/kg): not detected

AUC ([2]; cynomolgus monkey, plasma, iv, 1 mg/kg): 5 ± 1 µM·h
MRT ([2]; cynomolgus monkey, plasma, iv, 1 mg/kg, read-out: MRT): 52.2 ± 5.1 min
Vd ([2]; cynomolgus monkey, plasma, iv, 1 mg/kg, read-out: Vdss): 0.4 ± 0.097 L/kg
concentration at 24 hr ([2]; cynomolgus monkey, plasma, oral, 5 mg/kg): 17 ± 11 nM
AUC [2, 16]: 14 ± 4 µM·h
Cmax [2, 16]: 4.2 ± 2.6 µM
bioavailability ([2]; cynomolgus monkey, plasma, monkey, historical parent, PO 5 mg/kg, read-out: Bioavailability (%)): 64%
Tmax ([2]; cynomolgus monkey, plasma, monkey, historical parent, PO 5 mg/kg, read-out: Tmax (hr), PO): 2.3 h
bioavailability ([2]; male, cynomolgus monkey, plasma, oral, 4.9 mg/kg, read-out: Bioavailability): 122%
concentration at 24 hr ([2]; male, cynomolgus monkey, plasma, oral, 4.9 mg/kg): 7 ± 2 nM
AUC [2, 17]: 24 ± 4.6 µM·h
Cmax [2, 17]: 9.5 ± 1.2 µM
Tmax ([2]; male, cynomolgus monkey, plasma, po, 4.9 mg/kg, read-out: Tmax): 0.92 ± 0.14 h
bioavailability ([2]; male, cynomolgus monkey, plasma, monkey, oral prodrug, read-out: Bioavailability (%) of parent from prodrug): 122%
Tmax ([2]; male, cynomolgus monkey, plasma, monkey, parent after oral prodrug (~4-6 mg/kg parent equivalent), read-out: Tmax (hr), PO): 0.92 h
Tmax ([2]; monkey, PO IVc 5 mg/kg, historical IVc): 2.3 ± 1.5 h
Compound: COc1cnc(-n2cnc(C)n2)c2[nH]cc(C(=O)C(=O)N3CCN(C(=O)c4ccccc4)CC3)c12 [IVc]
time post-second dose at which mean Cmax of parent was achieved ([1]; dogs, BID dosing of prodrug): 1 to 2 h
time post-dose at which mean Cmax of parent was achieved ([1]; dogs, once daily (QD) dosing of prodrug): 1 to 2 h
AUC(0-inf) [1, 4]: 173 µM·h
concentration at 24 h [1, 4]: 107 nM
concentration at 24 h ([1]; female, dog, oral, 25 mg/kg, dog 2201F, day 1, Icb 25 mg/kg (IVc equiv. 20) QD dry-filled capsules): 688 nM
Cmax ([1]; female, dog, oral, 25 mg/kg, dog 2201F, day 8, Icb 25 mg/kg QD aqueous solution): 46.8 µM
concentration at 24 h ([1]; female, dog, oral, 46 mg/kg, dog 3201F, day 8, Icb 46 mg/kg BID dry-filled capsules): 307 nM
concentration at 24 h ([1]; female, dog, oral, 92 mg/kg, dog 3201F, day 1, Icb 92 mg/kg (IVc equiv. 75) QD dry-filled capsules): 202 nM
concentration at 24 h ([1]; female, dog, oral, 125 mg/kg, dog 4201F, day 8, Icb 125 mg/kg BID dry-filled capsules): 1960 nM
concentration at 24 h ([1]; female, dog, oral, 250 mg/kg, dog 4201F, day 1, Icb 250 mg/kg (IVc equiv. 203) QD dry-filled capsules): 704 nM
AUC(0-inf) [1, 5]: 122 µM·h
Cmax [1, 5]: 24.6 µM
AUC(0-inf) [1, 6]: 490 µM·h
Cmax [1, 6]: 104 µM
AUC(0-inf) [1, 7]: 730 µM·h
Cmax [1, 7]: 157 µM
AUC(0-inf) [1, 8]: 596 µM·h
Cmax [1, 8]: 96.9 µM
AUC(0-inf) [1, 9]: 523 µM·h
Cmax [1, 9]: 88.9 µM
AUC(0-inf) [1, 10]: 362 µM·h
concentration at 24 h [1, 10]: 547 nM
concentration at 24 h ([1]; male, dog, oral, 25 mg/kg, dog 2101M, day 1, Icb 25 mg/kg (IVc equiv. 20) QD dry-filled capsules): 8 nM
Cmax ([1]; male, dog, oral, 25 mg/kg, dog 2101M, day 8, Icb 25 mg/kg QD aqueous solution): 59.4 µM
concentration at 24 h ([1]; male, dog, oral, 46 mg/kg, dog 3101M, day 8, Icb 46 mg/kg BID dry-filled capsules): 10600 nM
concentration at 24 h ([1]; male, dog, oral, 92 mg/kg, dog 3101M, day 1, Icb 92 mg/kg (IVc equiv. 75) QD dry-filled capsules): 1900 nM
concentration at 24 h ([1]; male, dog, oral, 125 mg/kg, dog 4101M, day 8, Icb 125 mg/kg BID dry-filled capsules): 54200 nM
concentration at 24 h ([1]; male, dog, oral, 250 mg/kg, dog 4101M, day 1, Icb 250 mg/kg (IVc equiv. 203) QD dry-filled capsules): 2610 nM
AUC(0-inf) [1, 11]: 365 µM·h
Cmax [1, 11]: 65.1 µM
AUC(0-inf) [1, 12]: 1140 µM·h
Cmax [1, 12]: 121 µM
AUC(0-inf) [1, 13]: 820 µM·h
Cmax [1, 13]: 117 µM
AUC(0-inf) [1, 14]: 3780 µM·h
Cmax [1, 14]: 226 µM
AUC(0-inf) [1, 15]: 739 µM·h
Cmax [1, 15]: 92.6 µM
concentration at 24 h ([3]; male, CD, rat, 5 mg/kg): 29 nM
concentration at 24 h ([3]; male, CD, rat, 25 mg/kg): 350 nM
concentration at 24 h ([3]; male, CD, rat, 200 mg/kg): 58000 nM
Cmax ([3]; male, CD, rat, 5 mg/kg): 29 µM
AUC ([3]; male, CD, rat, 5 mg/kg, read-out: AUC from zero to ∞): 109 µM·h
Cmax ([3]; male, CD, rat, 25 mg/kg): 98 µM
AUC ([3]; male, CD, rat, 25 mg/kg, read-out: AUC from zero to ∞): 586 µM·h
AUC ([3]; male, CD, rat, 200 mg/kg): 2920 µM·h
Cmax ([3]; male, CD, rat, 200 mg/kg): 281 µM
time post-dose at which mean maximum plasma concentration (Cmax) was achieved ([3]; rats, single oral dose of prodrug): ≤ 1.7 h
